Biological target: T1, Xaa-Pro dipeptidase (Homo sapiens) (UniProt P12955)
T1 sequence (whole entry): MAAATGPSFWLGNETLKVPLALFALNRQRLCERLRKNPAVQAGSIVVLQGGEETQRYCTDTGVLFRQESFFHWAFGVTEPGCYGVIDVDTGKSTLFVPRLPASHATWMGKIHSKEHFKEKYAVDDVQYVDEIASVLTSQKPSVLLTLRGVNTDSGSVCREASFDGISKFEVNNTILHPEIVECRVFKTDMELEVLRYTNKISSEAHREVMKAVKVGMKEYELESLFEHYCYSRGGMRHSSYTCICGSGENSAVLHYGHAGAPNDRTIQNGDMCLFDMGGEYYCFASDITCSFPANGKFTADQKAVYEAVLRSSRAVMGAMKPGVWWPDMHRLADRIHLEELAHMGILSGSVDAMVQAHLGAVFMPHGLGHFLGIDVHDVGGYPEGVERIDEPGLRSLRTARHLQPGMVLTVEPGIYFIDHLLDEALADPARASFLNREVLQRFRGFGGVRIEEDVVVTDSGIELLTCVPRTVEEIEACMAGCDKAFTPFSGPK
Description: Inhibitory constant for inhibition of prolidase in the second phase of biphasic inhibition

Q: For `C=C(OP(=O)(O)O)C(=O)O`, which Ki' is on record?
A: Its Ki' is 240 µM.

From ChEMBL document CHEMBL1128857
